Measured values published in paper PMC3048208 (British Journal of Cancer, 2011).
Structures can show the parent of a compound that is named as a salt. Marks after values point to notes of the source that are not given here.

System: patients with advanced solid tumours
Assay: Phase I safety: DLT and adverse events (CTCAE v3.0)
[1] = Grades 3/4, level 5.5, 60 mg, 7 patients
[2] = Grades 3/4, level 6, 70 mg, 6 patients
[3] = Grades 3/4, level 7, 90 mg, 2 patients
[4] = all 38 treated patients, all grades
[5] = dose level 3, dose 20, 5 days every 2 weeks
[6] = dose level 6, dose 70, 5 days every 2 weeks, re-opened for expansion

## CCCCc1nc2cc(/C=C/C(=O)NO)ccc2n1CCN(CC)CC [SB939, 3-[2-butyl-1-(2-diethylaminoethyl)-1H-benzoimidazol-5-yl]-N-hydroxyacrylami-hydrochloride]
[1]
  AST (raised), no. of patients: 0
  Abdominal pain, no. of patients: 0
  Alkaline phophatase (raised), no. of patients: 0
  Altered taste, no. of patients: 0
  Anaemia, no. of patients: 0
  Anorexia, no. of patients: 0
  Bilirubin (raised), no. of patients: 0
  CPK, no. of patients: 0
  Cardiac arrythmia other, no. of patients: 0
  Cardiac dysfunction, no. of patients: 0
  Cardiac ischaemia, no. of patients: 0
  Constipation, no. of patients: 0
  Creatinine (raised), no. of patients: 0
  Diarrhoea, no. of patients: 1
  Fatigue, no. of patients: 1
  Leukopenia, no. of patients: 1
  Lymphopenia, no. of patients: 3
  Mucositis, no. of patients: 0
  Myositis, no. of patients: 0
  Nausea, no. of patients: 0
  Neutropenia, no. of patients: 0
  QT prolongation, no. of patients: 0
  Supra ventricular arrythmia, no. of patients: 0
  Syncope, no. of patients: 0
  Thrombocytopenia, no. of patients: 0
  Ventricular arrythmias (PVCs), no. of patients: 0
  Ventricular bigemini, no. of patients: 0
  Vomiting, no. of patients: 0
[2]
  ALT (raised), no. of patients: 0
  AST (raised), no. of patients: 0
  Abdominal pain, no. of patients: 0
  Alkaline phophatase (raised), no. of patients: 0
  Altered taste, no. of patients: 0
  Anaemia, no. of patients: 0
  Anorexia, no. of patients: 0
  Bilirubin (raised), no. of patients: 0
  CPK, no. of patients: 0
  Cardiac arrythmia other, no. of patients: 0
  Cardiac dysfunction, no. of patients: 0
  Cardiac ischaemia, no. of patients: 0
  Constipation, no. of patients: 0
  Creatinine (raised), no. of patients: 0
  Diarrhoea, no. of patients: 0
  Fatigue, no. of patients: 2
  Leukopenia, no. of patients: 1
  Lymphopenia, no. of patients: 3
  Mucositis, no. of patients: 0
  Myositis, no. of patients: 0
  Nausea, no. of patients: 0
  Neutropenia, no. of patients: 1
  QT prolongation, no. of patients: 0
  Supra ventricular arrythmia, no. of patients: 0
  Syncope, no. of patients: 0
  Thrombocytopenia, no. of patients: 1
  Ventricular arrythmias (PVCs), no. of patients: 0
  Ventricular bigemini, no. of patients: 0
  Vomiting, no. of patients: 0
[3]
  ALT (raised), no. of patients: 0
  AST (raised), no. of patients: 0
  Abdominal pain, no. of patients: 0
  Alkaline phophatase (raised), no. of patients: 0
  Altered taste, no. of patients: 0
  Anaemia, no. of patients: 0
  Anorexia, no. of patients: 0
  Bilirubin (raised), no. of patients: 0
  CPK, no. of patients: 0
  Cardiac arrythmia other, no. of patients: 0
  Cardiac dysfunction, no. of patients: 0
  Cardiac ischaemia, no. of patients: 0
  Constipation, no. of patients: 0
  Creatinine (raised), no. of patients: 0
  Diarrhoea, no. of patients: 0
  Fatigue, no. of patients: 1
  Leukopenia, no. of patients: 0
  Lymphopenia, no. of patients: 0
  Mucositis, no. of patients: 0
  Myositis, no. of patients: 0
  Nausea, no. of patients: 0
  Neutropenia, no. of patients: 0
  QT prolongation, no. of patients: 0
  Supra ventricular arrythmia, no. of patients: 0
  Syncope, no. of patients: 0
  Thrombocytopenia, no. of patients: 0
  Ventricular arrythmias (PVCs), no. of patients: 0
  Ventricular bigemini, no. of patients: 0
  Vomiting, no. of patients: 1
RPTD 60 mg, n=7, alteration of liver function tests
  Dose omissions, no. of patients: two
RPTD 60 mg, n=7, transaminase rise and QTc prolongation
  Dose reductions, no. of patients: two
All 38 treated patients
  Grade 3 diarrhea, no. of patients: one
  Grade 3 fatigue, no. of patients: 4
  Grade 3 myositis, no. of patients: one
  Grade 3 syncope, no. of patients: one
  Grade 3 vomiting, no. of patients: one
[4]
  Anorexia, related AE, frequency: 29%
  Diarrhoea, related AE, frequency: 18%
  Fatigue, related AE, frequency: 53%
  Nausea, related AE, frequency: 39%
  Vomiting, related AE, frequency: 29%
All dose levels
  Grade 2 QTc prolongation, no. of patients: four
  Grade 3 QTc elevations: none were grade 3
Dose level 1, dose 10, 3 days every 2 weeks
  No. of patients with DLT/total no. of patients treated: 0/3
Dose level 2, dose 10, 5 days every 2 weeks, grade 3 bilirubin subsequently declared not drug related
  No. of patients with DLT/total no. of patients treated: 1/6 ^a
[5]
  DLT: Grade 3 myositis
  No. of patients with DLT/total no. of patients treated: 1/6
Dose level 4, dose 30, 5 days every 2 weeks
  No. of patients with DLT/total no. of patients treated: 0/4
Dose level 5, dose 50, 5 days every 2 weeks
  No. of patients with DLT/total no. of patients treated: 0/4
Dose level 5.5, dose 60, 5 days every 2 weeks, not clear if entirely related to drug
  DLT: Grade 3 ALT ^d
Dose level 6, dose 70, 5 days every 2 weeks, escalation phase
  No. of patients with DLT/total no. of patients treated: 0/3
[6]
  DLT: Grade 4 platelets Grade 3 fatigue
  No. of patients with DLT/total no. of patients treated: 3/3
Dose level 7, dose 90, 5 days every 2 weeks
  DLT: Grade 3 fatigue Grade 3 vomiting
Dose level 7, dose 90, 5 days every 2 weeks, neither patient completed a full cycle
  No. of patients with DLT/total no. of patients treated: 1/2 ^b
Dose level of 60 mg or higher
  Grade 2 QTc prolongation, no. of patients: three
Dose levels ⩽50 mg
  Granulocytopenia, patients: 26%
  Lymphopenia, patients: 57%
Dose ⩾60 mg
  Granulocytopenia, patients: 60%
  Lymphopenia, patients: 80%
  Thrombocytopenia, patients: 87%
Grade 1
  Anaemia, no. of patients: 25
Grade 2
  Anaemia, no. of patients: 10
Grade 3
  Anaemia, no. of patients: 1
Of 38 patients, any grade
  Anaemia on study, no. of patients: Thirty-six
One patient, Day 1 cycle 7, 10 h after dose, unclear if drug related
  Maximum QTc: 475 ms
One patient, cycle 7, baseline 55%, unclear if drug related
  LVEF during periods of arrhythmia: 20–39%
oral, 5 consecutive days every 2 weeks
  Recommended phase II dose (RPTD): 60 mg
oral, 5 days every 2 weeks
  Maximal administered dose (MAD): 90 mg
Patient with myositis
  Grade 3 CPK elevation, no. of patients: one
